# Data reported in US11135209B2, “Compositions and methods for inhibiting protein kinases” (UNIVERSITY OF HOUSTON SYSTEM, priority 2017, dated 2021).
# How the values were obtained:
# [1] = system: NOD2 cellular signaling in HEK-Blue cells expressing human NOD2; test: NOD2 cell signaling assay (HEK-Blue, NFkB-SEAP reporter, L18-MDP stimulated); format: cell-based; settings: read-out: IC50 (nM) HEKBlue RIPK2
# Procedure: NOD2 Cell Signaling Assay.
# HEK-Blue cells expressing human NOD2 and NFkB-SAEP reporter (Invivogen) are seeded into 96 well clear plates at 7.5×10^3 cells per well in 100 μL of DMEM media supplemented with 10% FBS and 1% antibiotic-antimycotic mix. Cells are allowed to attach for 48 h in 5% CO2 tissue culture incubator at 37° C. On the morning of the experiment, media in the wells is replaced with 100 pt of HEK-Blue detection media (Invivogen). Cells are treated with the inhibitors, diluted in DMSO (0.5 μL per well) for 15 min in 5% CO2 tissue culture incubator at 37° C. After that, cells are stimulated by the addition of 1 ng/well L18-MDP (Invivogen). Cells are incubated in 5% CO2 tissue culture incubator at 37° C. for 8 h and absorbance, corresponding to the SEAP in the media, is determined in Wallac3V plate reader (Perkin Elmer). Inhibition, %=(1−((sample signal-unstimulated and DMSO treated cells)/(L18-MDP stimulated and DMSO treated cells−unstimulated and DMSO treated cells)))*100. IC50 values are calculated based on a dose range of inhibitor concentrations using non-linear regression in GraphPad Prism software.
# [2] = target: Recombinant RIPK2 protein (Homo sapiens, UniProt O43353); test: Receptor Interacting Protein Kinase 2 (RIPK2) enzyme assay (ADP-Glo); format: biochemical
# Chain of Recombinant RIPK2 protein (O43353 whole entry, species assumed): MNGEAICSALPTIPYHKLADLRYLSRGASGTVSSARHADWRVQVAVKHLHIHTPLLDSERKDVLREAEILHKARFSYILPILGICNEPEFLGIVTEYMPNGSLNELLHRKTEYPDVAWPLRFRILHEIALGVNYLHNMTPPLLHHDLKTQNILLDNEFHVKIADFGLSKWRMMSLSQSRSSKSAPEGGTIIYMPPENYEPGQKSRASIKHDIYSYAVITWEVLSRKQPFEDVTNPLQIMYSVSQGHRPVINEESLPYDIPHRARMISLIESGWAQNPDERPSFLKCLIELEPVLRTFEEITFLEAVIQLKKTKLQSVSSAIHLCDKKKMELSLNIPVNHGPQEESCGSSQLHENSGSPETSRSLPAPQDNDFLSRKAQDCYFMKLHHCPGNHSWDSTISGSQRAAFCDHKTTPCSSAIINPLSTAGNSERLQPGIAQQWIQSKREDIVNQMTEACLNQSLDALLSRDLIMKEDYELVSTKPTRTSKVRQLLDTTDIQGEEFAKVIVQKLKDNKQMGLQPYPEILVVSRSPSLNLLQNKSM
# Procedure: Receptor Interacting Protein Kinase 2 (RIPK2) Enzyme Assay
# Recombinant RIPK2 protein (20 ng per reaction) is diluted in the reaction buffer consisting of 40 mM Tris (pH 7.5); 20 mM MgCl2; 0.1 mg/ml BSA; 50 μM DTT. Diluted protein is added to low volume white 384 well plates (2 μL/well). Inhibitors are diluted in reaction buffer (final 25% DMSO), 1 μL is added to each well and incubated 5 min at room temperature. Reactions are initiated by the addition of 2 μL of 100 μM ATP and 1 mg/ml RS repeat peptide (SignalChem) in the reaction buffer. Plates are sealed with plastic coverslips and incubated at room temperature for 2 h. Reactions are stopped by the addition of 5 μL of ADP-Glo reagent (Promega) and ADP generation reaction is performed for 40 min at room temperature. Luminescence signal is generated by the addition of 10 μL of Kinase detection reagent (Promega) for 30 min at room temperature Luminescence signals are determined using appropriate luminescence plate-reader (typical integration time 0.3-1 sec). To calculate percent inhibition, average background signal is subtracted from test well and maximal signal wells. Inhibition, %=(1−(test signal/maximal signal))*100. The percent inhibition at a specified concentration is determined or IC50 values are calculated based on a dose range of inhibitor concentrations using non-linear regression in GraphPad Prism software.
# human ALK2 = target: T1, human ALK2 (Homo sapiens, UniProt Q04771); test: Activin-Like Kinase 2 (ALK2) enzyme assay; format: biochemical
# T1 sequence (Q04771 21-509): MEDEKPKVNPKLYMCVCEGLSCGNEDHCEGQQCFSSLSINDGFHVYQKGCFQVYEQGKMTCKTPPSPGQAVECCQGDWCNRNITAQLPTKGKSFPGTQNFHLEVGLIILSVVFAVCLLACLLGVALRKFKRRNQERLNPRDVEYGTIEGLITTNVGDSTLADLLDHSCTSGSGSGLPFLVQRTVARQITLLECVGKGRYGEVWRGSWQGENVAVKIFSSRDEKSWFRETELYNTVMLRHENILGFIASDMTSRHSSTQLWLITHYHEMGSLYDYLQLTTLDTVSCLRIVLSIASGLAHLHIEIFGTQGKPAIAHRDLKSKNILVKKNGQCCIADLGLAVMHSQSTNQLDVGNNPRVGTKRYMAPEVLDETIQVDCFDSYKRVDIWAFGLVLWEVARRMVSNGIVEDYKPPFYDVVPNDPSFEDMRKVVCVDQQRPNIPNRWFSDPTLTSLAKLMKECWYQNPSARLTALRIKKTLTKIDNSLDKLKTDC
# Procedure: Activin-Like Kinase 2 (ALK2) Enzyme Assay
# Enzyme inhibitory activity was evaluated in a standard kinase enzyme assay by incubating human ALK2 with the protein substrate casein (1 mg/mL) and γ-^33ATP (10 μM) in the presence of various concentrations of test compounds (10 nM-100 μM). After 30 min the amount of ^33P-casein was determined.
Compound,IC50 [2] [nM],IC50 (human ALK2) [nM],IC50 [1] [nM]
"CCCS(=O)(=O)N1CCOc2ccc(-c3cc(-c4ccc(N5CCNCC5)cc4)cnc3N)cc21 [CSLP47, 5-(4-(Piperazin-1-yl)phenyl)-3-(4-(propylsulfonyl)-3,4-dihydro-2H-benzo[b][1,4]oxazin-6-yl)pyridin-2-amine]",> 10,> 100000,> 1000
"CCCS(=O)(=O)Nc1cc(-c2cc(-c3ccc(N4CCNCC4)cc3)cnc2N)ccc1O [CSLP48, N-(5-(2-Amino-5-(4-(piperazin-1-yl)phenyl)pyridin-3-yl)-2-hydroxyphenyl)propane-1-sulfonamide]",> 10,> 100,> 1000
CCCS(=O)(=O)Nc1cc(-c2cc(-c3ccc(N4CCNCC4)cc3)cnc2N)cc(OCC)c1OCC [CSLP49],> 1000,> 100000,> 1000
"COc1cc(-c2cc(-c3ccc(N4CCNCC4)cc3)cnc2N)cc(NS(=O)(=O)c2ccccc2)c1C [CSLP51, N-(5-(2-Amino-5-(4-(piperazin-1-yl)phenyl)pyridin-3-yl)-3-methoxy-2-methylphenyl)benzenesulfonamide]",> 1000,> 1000,> 1000
"CCCS(=O)(=O)Nc1cc(-c2cc(-c3ccc(N4CCNCC4)cc3)cnc2N)cc2c1OCCO2 [CSLP52, N-(7-(2-Amino-5-(4-(piperazin-1-yl)phenyl)pyridin-3-yl)-2,3-dihydrobenzo[b][1,4]dioxin-5-yl)propane-1-sulfonamide]",> 100,> 100000,> 1000
"CCCS(=O)(=O)Nc1cc(-c2cc(-c3ccc(N4CCNCC4)cc3)cnc2C)cc(F)c1OC [CSLP53, N-(3-Fluoro-2-methoxy-5-(2-methyl-5-(4-(piperazin-1-yl)phenyl)pyridin-3-yl)phenyl)propane-1-sulfonamide]",> 1000,> 100000,> 1000

# The next lines start with results.
IC50 [2] [nM],IC50 (human ALK2) [nM],Compound,IC50 [1] [nM]
> 1000,> 1000,"CCOc1cc(-c2cc(-c3ccc(N4CCNCC4)cc3)cnc2N)cc(NS(=O)(=O)Cc2ccccc2)c1C [CSLP54, N-(5-(2-Amino-5-(4-(piperazin-1-yl)phenyl)pyridin-3-yl)-3-ethoxy-2-methylphenyl)-1-phenylmethanesulfonamide]",> 1000
> 1000,> 100000,CCCS(=O)(=O)Nc1cc(-c2cc(-c3ccc(N4CCNCC4)cc3)cnc2N)cc(OCC)c1OC [CSLP56],> 1000
> 100,> 1000,"CCCS(=O)(=O)N1CCOc2c(F)cc(-c3cc(-c4ccc(N5CCNCC5)cc4)cnc3N)cc21 [CSLP57, 3-(8-Fluoro-4-(propylsulfonyl)-3,4-dihydro-2H-benzo[b][1,4]oxazin-6-yl)-5-(4-(piperazin-1-yl)phenyl)pyridin-2-amine]",> 100
> 10,> 100,"CCCS(=O)(=O)Nc1cc(-c2cc(-c3cccc(N4CCNCC4)c3)cnc2N)cc(F)c1OC [CSLP58, N-(5-(2-Amino-5-(3-(piperazin-1-yl)phenyl)pyridin-3-yl)-3-fluoro-2-methoxyphenyl)propane-1-sulfonamide]",> 10
